Assay results reported in patent US20230203081A1, “LINCOSAMIDE ANTIBIOTICS AND USES THEREOF” (President and Fellows of Harvard College, priority 2020, published 2023).
≈ marks a conversion by molar mass, not a printed value.

Assays:
Assay type in all cases: cell-based
E. coli ΔTolC = test: microbe, parasite or virus in culture; conditions: Escherichia coli, E. coli HAV#038; ΔTolC
Summary of the method: (§1)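 Inoculum for broth microdilution was 5×10^5 CFU/mL final, prepared from overnight 35° C blood-agar subcultures (separate handling for streptococcal and anaerobic strains); MICs read by CLSI broth microdilution or agar dilution.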

S. aureus MP-549 msrA = test: microbe, parasite or virus in culture; conditions: Staphylococcus aureus, MP549MSRA; S. aureus HAV#032, MP-549; MSR(A); read-out: MIC
Summary of the method: as §1

S. aureus BAA 977 iErmA = test: microbe, parasite or virus in culture; conditions: Staphylococcus aureus, BAA-977 / MRSA
Summary of the method: as §1

[1] = tested on: broad panel of different clinical isolates; test: microbe, parasite or virus in culture
Summary of the method: as §1

[2] = tested on: S. aureus ATCC BAA-1707 (MRSA); test: MIC (broth microdilution or agar dilution, CLSI); conditions: Staphylococcus aureus; S. aureus HAV#016, ATCC BAA-1707; MRSA; read-out: MIC
Summary of the method: as §1

[3] = tested on: E. faecalis MMX 847; cErmB; test: MIC (broth microdilution or agar dilution, CLSI); conditions: Enterococcus faecalis; E. faecalis HAV#036, MMX 847; mac-resistant, cErmB; read-out: MIC
Summary of the method: as §1

[4] = tested on: S. pyogenes MMX 946; cErmB; test: MIC (broth microdilution or agar dilution, CLSI); conditions: Streptococcus pyogenes; S. pyogenes HAV#035, MMX 946; cErmB, mac-resistant; read-out: MIC
Summary of the method: as §1

S. pneumoniae ATCC 6303 = test: MIC (broth microdilution or agar dilution, CLSI); conditions: Streptococcus pneumoniae, ATCC6303; S. pneumoniae HAV#351, ATCC 6303; read-out: MIC
Summary of the method: as §1

[5] = tested on: S. pneumoniae MMX 3028 cErmB; test: MIC (broth microdilution or agar dilution, CLSI); conditions: Streptococcus pneumoniae, MMX3028CERMB; S. pneumoniae HAV#033; MMX 3028, cErmB; read-out: MIC
Summary of the method: as §1

[6] = tested on: S. pneumoniae MMX 3031 cMefA; test: MIC (broth microdilution or agar dilution, CLSI); conditions: Streptococcus pneumoniae, MMX3031CMEFA, S. pneumoniae HAV#034; MMX 3031, cMefA; read-out: MIC
Summary of the method: as §1

E. coli LptD = test: MIC (broth microdilution or agar dilution, CLSI); conditions: Escherichia coli, E. coli HAV#040; LptD; read-out: MIC
Summary of the method: as §1

E. faecalis ATCC 29212 = test: MIC (broth microdilution or agar dilution, CLSI); conditions: Enterococcus faecalis, ATCC29212, E. faecalis HAV#005, ATCC 29212; read-out: MIC
Summary of the method: as §1

S. aureus ATCC 29213 = test: MIC (broth microdilution or agar dilution, CLSI); conditions: Staphylococcus aureus, ATCC29213, S. aureus HAV#001, ATCC 29213, MP-549; read-out: MIC
Summary of the method: as §1

S. pneumoniae ATCC 49619 = test: MIC (broth microdilution or agar dilution, CLSI); conditions: Streptococcus pneumoniae, ATCC49619, S. pneumoniae HAV#003, ATCC 49619; read-out: MIC
Summary of the method: as §1

S. aureus MMX 3035 cErmA = test: MIC (broth microdilution or agar dilution, CLSI); conditions: Staphylococcus aureus, MMX3035CERMA; S. aureus HAV#031, MMX 3035; cErmA; read-out: MIC
Summary of the method: as §1

E. coli ATCC 25922 = test: MIC (broth microdilution or agar dilution, CLSI); conditions: Escherichia coli, ATCC25922; E. coli HAV#006, ATCC 25922
Summary of the method: as §1

S. pyogenes ATCC 19615 = test: MIC (broth microdilution or agar dilution, CLSI); conditions: Streptococcus pyogenes, ATCC19615, S. pyogenes HAV#004, ATCC 19615; read-out: MIC
Summary of the method: as §1

## CC(=O)NC[C@H]1CN(c2ccc(N3CCOCC3)c(F)c2)C(=O)O1 [Linezolid]
E. coli ΔTolC
  MIC: 8 µg/mL (≈ 23.7 µM)
S. aureus MP-549 msrA
  MIC: 4 µg/mL (≈ 11.9 µM)
S. aureus BAA 977 iErmA
  MIC: 2 µg/mL (≈ 5.93 µM)
S. aureus BAA 977 iErmA; 24 h
  MIC: 4 µg/mL (≈ 11.9 µM)
[1]; Acinetobacter baumannii, A. baumannii HAV#651, Clinical
  MIC: 16 µg/mL (≈ 47.4 µM)
[1]; Acinetobacter baumannii, A. baumannii HAV#652 Clinical
  MIC: 32 µg/mL (≈ 94.9 µM)
[1]; Acinetobacter baumannii, A. baumannii HAV#653, Clinical
  MIC: 32 µg/mL (≈ 94.9 µM)
[1]; Acinetobacter baumannii, A. baumannii HAV#654, Clinical
  MIC: 32 µg/mL (≈ 94.9 µM)
[1]; Acinetobacter baumannii, A. baumannii HAV#655, Clinical
  MIC: 128 µg/mL (≈ 379 µM)
[1]; Acinetobacter baumannii, A. baumannii HAV#656, Clinical
  MIC: 64 µg/mL (≈ 190 µM)
[1]; Acinetobacter baumannii, A. baumannii HAV#657, Clinical
  MIC: 64 µg/mL (≈ 190 µM)
[1]; Acinetobacter baumannii, A. baumannii HAV#658, Clinical
  MIC: 64 µg/mL (≈ 190 µM)
[1]; Acinetobacter baumannii, A. baumannii HAV#659, Clinical
  MIC: 64 µg/mL (≈ 190 µM)
[1]; Acinetobacter baumannii, A. baumannii HAV#660, Clinical
  MIC: 64 µg/mL (≈ 190 µM)
[1]; Acinetobacter baumannii, A. baumannii HAV#661, Clinical
  MIC: 32 µg/mL (≈ 94.9 µM)
[1]; Acinetobacter baumannii, A. baumannii HAV#662, Clinical
  MIC: 64 µg/mL (≈ 190 µM)
[1]; Acinetobacter baumannii, A. baumannii HAV#663, Clinical
  MIC: 32 µg/mL (≈ 94.9 µM)
[1]; Acinetobacter baumannii, A. baumannii HAV#664, Carbapenem R
  MIC: 64 µg/mL (≈ 190 µM)
[1]; Enterococcus faecalis, E. faecalis HAV#602, Clincal
  MIC: 4 µg/mL (≈ 11.9 µM)
[1]; Enterococcus faecalis, E. faecalis HAV#607, Clinical
  MIC: 16 µg/mL (≈ 47.4 µM)
[1]; Enterococcus faecalis, E. faecalis HAV#609, Clinical
  MIC: 4 µg/mL (≈ 11.9 µM)
[1]; Enterococcus faecalis, S. faecalis 5060, Line R & Vanco R
  MIC: 8 µg/mL (≈ 23.7 µM)
[1]; Enterococcus faecalis, S. faecalis 5074, Line R
  MIC: 8 µg/mL (≈ 23.7 µM)
[1]; Enterococcus faecalis, VRE, E. faecalis HAV#251, Clinical VRE
  MIC: 2 µg/mL (≈ 5.93 µM)
[1]; Enterococcus faecalis, VRE, E. faecalis HAV#606, Clinical
  MIC: 2 µg/mL (≈ 5.93 µM)
[1]; Enterococcus faecium, E. faecium HAV#317, Clinical
  MIC: 2 µg/mL (≈ 5.93 µM)
[1]; Enterococcus faecium, E. faecium HAV#324, Clinical
  MIC: 4 µg/mL (≈ 11.9 µM)
[1]; Enterococcus faecium, E. faecium HAV#327, Clinical
  MIC: 4 µg/mL (≈ 11.9 µM)
[1]; Enterococcus faecium, E. faecium HAV#329, Clinical
  MIC: 4 µg/mL (≈ 11.9 µM)
[1]; Enterococcus faecium, VRE, E. faecium HAV#318, VanA
  MIC: 4 µg/mL (≈ 11.9 µM)
[1]; Enterococcus faecium, VRE, E. faecium HAV#319, Line R & Vanco R
  MIC: 64 µg/mL (≈ 190 µM)
[1]; Enterococcus faecium, VRE, E. faecium HAV#320, Clinical
  MIC: 2 µg/mL (≈ 5.93 µM)
[1]; Escherichia coli, E. coli HAV#503, Clinical
  MIC: 128 µg/mL (≈ 379 µM)
[1]; Escherichia coli, E. coli HAV#511, Clinical
  MIC: 32 µg/mL (≈ 94.9 µM)
[1]; Escherichia coli, E. coli HAV#512, Clinical
  MIC: 32 µg/mL (≈ 94.9 µM)
[1]; Escherichia coli, E. coli HAV#513, Clinical
  MIC: 32 µg/mL (≈ 94.9 µM)
[1]; Escherichia coli, E. coli HAV#514, Clinical
  MIC: 32 µg/mL (≈ 94.9 µM)
[1]; Escherichia coli, E. coli HAV#516, ESBL-producing
  MIC: 64 µg/mL (≈ 190 µM)
[1]; Haemophilus influenzae, ATCC9007, H. influenzae HAV#376, ATCC-9007
  MIC: 4 µg/mL (≈ 11.9 µM)
[1]; Klebsiella pneumoniae, K. pneumoniae HAV#404, Clinical
  MIC: 32 µg/mL (≈ 94.9 µM)
[1]; Klebsiella pneumoniae, K. pneumoniae HAV#405, Clinical
  MIC: 32 µg/mL (≈ 94.9 µM)
[1]; Klebsiella pneumoniae, K. pneumoniae HAV#406, Clinical
  MIC: 32 µg/mL (≈ 94.9 µM)
[1]; Klebsiella pneumoniae, K. pneumoniae HAV#407, Clinical
  MIC: 32 µg/mL (≈ 94.9 µM)
[1]; Klebsiella pneumoniae, K. pneumoniae HAV#408, Clinical
  MIC: 32 µg/mL (≈ 94.9 µM)
[1]; Klebsiella pneumoniae, K. pneumoniae HAV#409, ESBL-producing
  MIC: 64 µg/mL (≈ 190 µM)
[1]; Staphylococcus aureus, MRSA, S. aureus HAV#0107, MRSA Col(Colindale, England)
  MIC: 2 µg/mL (≈ 5.93 µM)
[1]; Staphylococcus aureus, MRSA, S. aureus HAV#218, Line R
  MIC: 8 µg/mL (≈ 23.7 µM)
[1]; Staphylococcus aureus, MRSA, S. aureus HAV#220, Line R
  MIC: 32 µg/mL (≈ 94.9 µM)
[1]; Staphylococcus aureus, MSSA, S. aureus HAV#219, Line R
  MIC: 32 µg/mL (≈ 94.9 µM)
[1]; Staphylococcus aureus, S. aureus HAV#051, mecA, norA, spcl, ermA, aad1, aac6′-aph2″
  MIC: 4 µg/mL (≈ 11.9 µM)
[1]; Staphylococcus aureus, S. aureus HAV#052, mecA, norA, fosB, blaZ
  MIC: 4 µg/mL (≈ 11.9 µM)
[1]; Staphylococcus aureus, S. aureus HAV#053 mecA, norA, fosB
  MIC: 4 µg/mL (≈ 11.9 µM)
[1]; Staphylococcus aureus, S. aureus HAV#054, mecA, norA, spcl, aad1, fosB, ermA, aac6′-aph2″, blaZ
  MIC: 1 µg/mL (≈ 2.96 µM)
[1]; Staphylococcus aureus, S. aureus HAV#211, Clinical
  MIC: 4 µg/mL (≈ 11.9 µM)
[1]; Staphylococcus aureus, S. aureus HAV#212, Clinical
  MIC: 4 µg/mL (≈ 11.9 µM)
[1]; Staphylococcus aureus, S. aureus HAV#214, Clinical
  MIC: 4 µg/mL (≈ 11.9 µM)
[1]; Staphylococcus aureus, S. aureus HAV#216, Clinical, cfr
  MIC: 16 µg/mL (≈ 47.4 µM)
[1]; Staphylococcus aureus, S. aureus HAV#217, cfr
  MIC: 64 µg/mL (≈ 190 µM)
[1]; Staphylococcus aureus, VISA, S. aureus HAV#203, Clinical (VISA)
  MIC: 2 µg/mL (≈ 5.93 µM)
[1]; Staphylococcus epidermidis, S. epidermidis HAV# 275 Clinical, cfr
  MIC: > 64 µg/mL
[1]; Staphylococcus epidermidis, S. epidermidis HAV# 276, cfr
  MIC: > 64 µg/mL
[1]; Staphylococcus epidermidis, S. epidermidis HAV#277, Line R
  MIC: > 128 µg/mL
[1]; Staphylococcus epidermidis, S. epidermidis HAV#278 Line R
  MIC: 64 µg/mL (≈ 190 µM)
[1]; Staphylococcus epidermidis, S. epidermidis HAV#279, Line R
  MIC: 4 µg/mL (≈ 11.9 µM)
[1]; Staphylococcus haemolyticus, S. haemolyticus 5052, Line R & Methicillin R
  MIC: 64 µg/mL (≈ 190 µM)
[1]; Streptococcus pneumoniae, ATCC700673, S. pneumoniae HAV#352, ATCC 700673, MDR
  MIC: 4 µg/mL (≈ 11.9 µM)
[1]; Streptococcus pneumoniae, ATCCBAA255, S. pneumoniae HAV#354, ATCC-BAA-255
  MIC: 4 µg/mL (≈ 11.9 µM)
[1]; Streptococcus pneumoniae, ATCCBAA334, S. pneumoniae HAV#353, ATCC-BAA-334
  MIC: 4 µg/mL (≈ 11.9 µM)
[1]; Streptococcus pneumoniae, S. pneumoniae HAV#356, Clinical
  MIC: 4 µg/mL (≈ 11.9 µM)
[1]; Streptococcus pneumoniae, S. pneumoniae HAV#358, Clinical
  MIC: 4 µg/mL (≈ 11.9 µM)
[2]
  MIC: 2 µg/mL (≈ 5.93 µM)
[3]
  MIC: 2 µg/mL (≈ 5.93 µM)
[4]
  MIC: 1 µg/mL (≈ 2.96 µM)
S. pneumoniae ATCC 6303
  MIC: 1 µg/mL (≈ 2.96 µM)
[5]
  MIC: 0.5 µg/mL (≈ 1.48 µM)
[6]
  MIC: 1 µg/mL (≈ 2.96 µM)
E. coli LptD
  MIC: 32 µg/mL (≈ 94.9 µM)
E. faecalis ATCC 29212
  MIC: 2 µg/mL (≈ 5.93 µM)
S. aureus ATCC 29213
  MIC: 2 µg/mL (≈ 5.93 µM)
S. pneumoniae ATCC 49619
  MIC: 1 µg/mL (≈ 2.96 µM)
S. aureus MMX 3035 cErmA
  MIC: 2 µg/mL (≈ 5.93 µM)
E. coli ATCC 25922
  MIC: > 128 µg/mL
S. pyogenes ATCC 19615
  MIC: 2 µg/mL (≈ 5.93 µM)
